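Assay format: 96-well plates, 48-hour exposure. GI50: concentration for 50% inhibition of growth. TGI denotes the concentration required for complete inhibition of growth.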
System: P388 leukemia
Assay: NCI tumour cell line growth inhibition, 48 h

Which GI50 does the source give for CCc1ccc([O-])c(C=NCCCN(C)CCCN=Cc2cc(C)ccc2[O-])c1.[Co+3].[N-]=[N+]=[N-] here?
The GI50 was 145 µg/mL.

What about the TGI of the same compound?
Its TGI is > 150 µg/mL.

Reference: PubChem BioAssay (NCI)
